Reference: PubChem BioAssay (NCI)
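Values below derive from 48-hour exposures of cells grown in 96-well plates, with endpoints linearly interpolated between the two concentrations bracketing the appropriate inhibition level. TGI is the concentration that stops growth completely.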

How the values were obtained:
Experiment in all cases: growth of human tumour cells (NCI), 48 h
BT-549 breast = tested on: BT-549 breast
SK-MEL-28 melanoma = tested on: SK-MEL-28 melanoma
UACC-257 melanoma = tested on: UACC-257 melanoma
NCI/ADR-RES ovarian = tested on: NCI/ADR-RES ovarian
SNB-75 CNS = tested on: SNB-75 CNS
RXF 393 renal = tested on: RXF 393 renal
OVCAR-4 ovarian = tested on: OVCAR-4 ovarian
SF-268 CNS = tested on: SF-268 CNS
UO-31 renal = tested on: UO-31 renal
T-47D breast = tested on: T-47D breast
COLO 205 colon = tested on: COLO 205 colon
K-562 leukemia = tested on: K-562 leukemia
HCC-2998 colon = tested on: HCC-2998 colon
RPMI-8226 leukemia = tested on: RPMI-8226 leukemia
KM12 colon = tested on: KM12 colon
U251 CNS = tested on: U251 CNS
NCI-H226 lung = tested on: NCI-H226 lung
NCI-H460 lung = tested on: NCI-H460 lung
A549 NSCLC = tested on: A549 NSCLC
HT29 colon = tested on: HT29 colon
OVCAR-3 ovarian = tested on: OVCAR-3 ovarian
SN12C renal = tested on: SN12C renal
DU-145 prostate = tested on: DU-145 prostate
NCI-H522 lung = tested on: NCI-H522 lung
SK-MEL-5 melanoma = tested on: SK-MEL-5 melanoma
HS 578T breast = tested on: HS 578T breast
UACC-62 melanoma = tested on: UACC-62 melanoma
HOP-92 NSCLC = tested on: HOP-92 NSCLC
MALME-3M melanoma = tested on: MALME-3M melanoma
ACHN renal = tested on: ACHN renal
SNB-19 CNS = tested on: SNB-19 CNS
PC-3 prostate = tested on: PC-3 prostate
HCT-116 colon = tested on: HCT-116 colon
SR leukemia = tested on: SR leukemia
MCF7 breast = tested on: MCF7 breast
M14 melanoma = tested on: M14 melanoma
MDA-N = tested on: MDA-N
LOX IMVI melanoma = tested on: LOX IMVI melanoma
MDA-MB-231 breast = tested on: MDA-MB-231 breast
TK-10 renal = tested on: TK-10 renal
SK-MEL-2 melanoma = tested on: SK-MEL-2 melanoma
SW-620 colon = tested on: SW-620 colon
MOLT-4 leukemia = tested on: MOLT-4 leukemia
HOP-62 NSCLC = tested on: HOP-62 NSCLC
MDA-MB-435 = tested on: MDA-MB-435
CCRF-CEM leukemia = tested on: CCRF-CEM leukemia
CAKI-1 renal = tested on: CAKI-1 renal
NCI-H23 lung = tested on: NCI-H23 lung
EKVX NSCLC = tested on: EKVX NSCLC
SF-539 CNS = tested on: SF-539 CNS
IGROV1 ovarian = tested on: IGROV1 ovarian
A498 renal = tested on: A498 renal
OVCAR-5 ovarian = tested on: OVCAR-5 ovarian
OVCAR-8 ovarian = tested on: OVCAR-8 ovarian
HCT-15 colon = tested on: HCT-15 colon
SF-295 CNS = tested on: SF-295 CNS
SK-OV-3 ovarian = tested on: SK-OV-3 ovarian
786-0 renal = tested on: 786-0 renal

COc1cc(OC)cc(C(=O)NC2=C(Cl)C(=O)c3ccccc3C2=O)c1
TGI (BT-549 breast): 9.22 µM | TGI (SK-MEL-28 melanoma): 19 µM | TGI (UACC-257 melanoma): 6.2 µM | TGI (NCI/ADR-RES ovarian): 11.9 µM | TGI (SNB-75 CNS): 12.3 µM | TGI (RXF 393 renal): 4.09 µM | TGI (OVCAR-4 ovarian): 6.01 µM | TGI (SF-268 CNS): 12.8 µM | TGI (UO-31 renal): 9.42 µM | TGI (T-47D breast): 3.51 µM | TGI (COLO 205 colon): 15.6 µM | TGI (K-562 leukemia): 4.01 µM | TGI (HCC-2998 colon): 13.8 µM | TGI (RPMI-8226 leukemia): > 21.7 µM | TGI (KM12 colon): 10.4 µM | TGI (U251 CNS): 9.42 µM | TGI (NCI-H226 lung): 12 µM | TGI (NCI-H460 lung): 9.24 µM | TGI (A549 NSCLC): > 38.3 µM | TGI (HT29 colon): 10.9 µM | TGI (OVCAR-3 ovarian): 5.54 µM | TGI (SN12C renal): 13.1 µM | TGI (DU-145 prostate): 16.8 µM | TGI (NCI-H522 lung): 2.47 µM | TGI (SK-MEL-5 melanoma): 5.35 µM | TGI (HS 578T breast): 24.4 µM | TGI (UACC-62 melanoma): 1.22 µM | TGI (HOP-92 NSCLC): 2.89 µM | TGI (MALME-3M melanoma): 3.31 µM | TGI (ACHN renal): 2.83 µM | TGI (SNB-19 CNS): 21.9 µM | TGI (PC-3 prostate): 10.9 µM | TGI (HCT-116 colon): 2.35 µM | TGI (SR leukemia): > 23.1 µM | TGI (MCF7 breast): 8.73 µM | TGI (M14 melanoma): 6.67 µM | TGI (MDA-N): 5.13 µM | TGI (LOX IMVI melanoma): 5.14 µM | TGI (MDA-MB-231 breast): 29.2 µM | TGI (TK-10 renal): 7.68 µM | TGI (SK-MEL-2 melanoma): 4.01 µM | TGI (SW-620 colon): 2.65 µM | TGI (MOLT-4 leukemia): 6.12 µM | TGI (HOP-62 NSCLC): 27.8 µM | TGI (MDA-MB-435): 4.48 µM | TGI (CCRF-CEM leukemia): 3.99 µM | TGI (CAKI-1 renal): 17.7 µM | TGI (NCI-H23 lung): 7.93 µM | TGI (EKVX NSCLC): > 39.6 µM | TGI (SF-539 CNS): 18.5 µM | TGI (IGROV1 ovarian): 12.9 µM | TGI (A498 renal): 27.1 µM | TGI (OVCAR-5 ovarian): 16.6 µM | TGI (OVCAR-8 ovarian): 17.6 µM | TGI (HCT-15 colon): 10.4 µM | TGI (SF-295 CNS): 9.91 µM | TGI (SK-OV-3 ovarian): 11.2 µM

N#CC1(C#N)C2=C(CCCC2)NC(c2ccc(Br)cc2)C1(C#N)C#N (centres undefined)
TGI (BT-549 breast): 26.9 µM | TGI (SK-MEL-28 melanoma): 25.9 µM | TGI (UACC-257 melanoma): 11.5 µM | TGI (NCI/ADR-RES ovarian): > 100 µM | TGI (SNB-75 CNS): 30.8 µM | TGI (RXF 393 renal): 6.15 µM | TGI (OVCAR-4 ovarian): 20.7 µM | TGI (SF-268 CNS): 24.7 µM | TGI (UO-31 renal): 3.03 µM | TGI (T-47D breast): 5.41 µM | TGI (COLO 205 colon): 2.58 µM | TGI (K-562 leukemia): 12 µM | TGI (HCC-2998 colon): 46.4 µM | TGI (RPMI-8226 leukemia): 15.8 µM | TGI (KM12 colon): 29.4 µM | TGI (U251 CNS): 26.8 µM | TGI (NCI-H226 lung): 39 µM | TGI (NCI-H460 lung): 63.6 µM | TGI (786-0 renal): 3.75 µM | TGI (A549 NSCLC): 30.9 µM | TGI (HT29 colon): 10.1 µM | TGI (OVCAR-3 ovarian): 18.2 µM | TGI (SN12C renal): 7.06 µM | TGI (DU-145 prostate): 25.1 µM | TGI (NCI-H522 lung): 3.06 µM | TGI (SK-MEL-5 melanoma): 28.8 µM | TGI (HS 578T breast): 44.6 µM | TGI (UACC-62 melanoma): 32.4 µM | TGI (HOP-92 NSCLC): 18.9 µM | TGI (MALME-3M melanoma): 3.83 µM | TGI (ACHN renal): 3.88 µM | TGI (SNB-19 CNS): 30.1 µM | TGI (PC-3 prostate): 26.8 µM | TGI (HCT-116 colon): 4.15 µM | TGI (SR leukemia): 5.56 µM | TGI (MCF7 breast): 19.9 µM | TGI (M14 melanoma): 7.04 µM | TGI (MDA-N): 14 µM | TGI (LOX IMVI melanoma): 6.93 µM | TGI (MDA-MB-231 breast): 23.9 µM | TGI (TK-10 renal): 16 µM | TGI (SK-MEL-2 melanoma): 34.1 µM | TGI (SW-620 colon): 2.88 µM | TGI (MOLT-4 leukemia): 15.7 µM | TGI (HOP-62 NSCLC): 35.7 µM | TGI (MDA-MB-435): 9.05 µM | TGI (CAKI-1 renal): 4.99 µM | TGI (NCI-H23 lung): 30.3 µM | TGI (EKVX NSCLC): 25.3 µM | TGI (SF-539 CNS): 31.6 µM | TGI (IGROV1 ovarian): 9.24 µM | TGI (A498 renal): 37.5 µM | TGI (OVCAR-5 ovarian): 24.9 µM | TGI (OVCAR-8 ovarian): 11.5 µM | TGI (HCT-15 colon): 9.85 µM | TGI (SF-295 CNS): 56.5 µM | TGI (SK-OV-3 ovarian): > 56.4 µM
